The text below walks through data of ChEMBL document CHEMBL3508693 (2016).

The target in one data set is T1, CYP2A6 (Homo sapiens, UniProt P11509).
T1 sequence (P11509 whole entry): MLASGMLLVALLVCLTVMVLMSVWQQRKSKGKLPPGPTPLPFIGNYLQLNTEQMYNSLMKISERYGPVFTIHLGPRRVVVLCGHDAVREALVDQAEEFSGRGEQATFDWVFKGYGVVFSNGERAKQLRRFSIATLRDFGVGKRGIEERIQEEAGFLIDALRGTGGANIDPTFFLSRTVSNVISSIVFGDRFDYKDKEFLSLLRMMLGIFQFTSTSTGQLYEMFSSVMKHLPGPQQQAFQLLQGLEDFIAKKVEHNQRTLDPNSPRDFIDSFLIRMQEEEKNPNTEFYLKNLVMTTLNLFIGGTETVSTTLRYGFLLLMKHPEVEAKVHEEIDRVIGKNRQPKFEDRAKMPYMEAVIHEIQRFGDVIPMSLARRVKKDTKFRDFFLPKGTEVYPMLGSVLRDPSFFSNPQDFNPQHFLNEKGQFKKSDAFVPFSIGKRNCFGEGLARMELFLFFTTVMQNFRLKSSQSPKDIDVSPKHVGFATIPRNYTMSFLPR
The data set can be described thus: Inhibitory activity of 200 uM SPP100 on 37 Pmoles of cDNA-derived CYP2A6 enzyme in microsome prepared from human lymphoblastoid cell line. In kind it is ADME, microsomes. Set-up: conc 200 uM, interact cpd conc 3 uM. Conditions: probe coumarine.

Data set [1] can be described thus: Mean excretion of radioactivity (48-72h) in urine and faeces following single intravenous dose of 10 mg.Kg-1 [14C] aliskiren hemifumarate in rat. Conditions: in vivo. In kind it is ADME, organism-based, Albino HAN:WIST, Urine/Feces.
Data set [2] can be described thus: Mean excretion of radioactivity (24-48h) in urine and faeces following single oral dose of 100 mg.Kg-1 [14C] aliskiren hemifumarate in rat. Conditions: in vivo. The data set is classed as ADME, organism-based, Albino HAN:WIST, Urine/Feces.
Data set [3] in a line: Concentration of radioactivity in the kidney medulla following repeated oral administration of [14C] aliskiren hemifumarate at 100 mg.Kg-1 level studied at 24h after 7th dose in rat. In kind it is ADME, organism-based, Albino HAN:WIST, Renal medulla. Conditions: in vivo.
Data set [4] in a line: Excretion of radioactivity (24-48h) in urine following single intravenous dose of 10 mg.Kg-1 [14C] aliskiren hemifumarate in rat. The data set is classed as ADME, organism-based, Albino HAN:WIST. The note with it: in vivo.
The nature of data set [5]: Concentration of radioactivity in the kidney medulla following repeated oral administration of [14C] aliskiren hemifumarate at 100 mg.Kg-1 level studied at 24h after 3rd dose in rat. Conditions: in vivo. In kind it is ADME, organism-based, Albino HAN:WIST, Renal medulla.
Data set [6] is described as follows: Concentration of radioactivity in the liver following repeated oral administration of [14C] aliskiren hemifumarate at 100 mg.Kg-1 level studied at 2h after 10th dose in rat. The data set is classed as ADME, organism-based, Albino HAN:WIST. The note with it: in vivo.
The nature of data set [7]: Apparent Km value of metabolism of [14C] aliskiren hemifumarate studied in human liver microsome. In kind it is ADME. The note with it: microsomes.
The nature of data set [8]: Concentration of radioactivity in the colon wall following repeated oral administration of [14C] aliskiren hemifumarate at 100 mg.Kg-1 level studied at 24h after 7th dose in rat. Conditions: in vivo. In kind it is ADME, organism-based, Albino HAN:WIST.
The nature of data set [9]: Concentration of radioactivity in the colon wall following repeated oral administration of [14C] aliskiren hemifumarate at 100 mg.Kg-1 level studied at 2h after 10th dose in rat. The data set is classed as ADME, organism-based, Albino HAN:WIST. The note with it: in vivo.
A short description of data set [10]: Excretion (0-168h) of radioactivity in urine following oral administration of [14C] aliskiren hemifumarate at 3 mg.Kg-1 level in marmoset. The note with it: in vivo. The data set is classed as ADME, organism-based, Callithrix jacchus.
A short description of data set [11]: Excretion (0-24h) of radioactivity in faeces following oral administration of [14C] aliskiren hemifumarate at 3 mg.Kg-1 level in marmoset. The data set is classed as ADME, organism-based, Callithrix jacchus, Feces. The note with it: in vivo.
Data set [12] can be described thus: Excretion (48h) of radioactivity in faeces following oral administration of [14C] aliskiren hemifumarate at 100 mg.Kg-1 level in rat. The data set is classed as ADME, organism-based, Lister-Hooded, Feces. Conditions: in vivo.
Data set [13] can be described thus: Tmax of [14C] aliskiren hemifumarate following single intravenous dose of [14C] aliskiren hemifumarate at 10 mg.Kg-1 level in mouse. In kind it is ADME, organism-based, TgRasH2, Plasma. Conditions: in vivo.
The nature of data set [14]: Absorption (0-168h) of total radioactivity following single oral administration of [14C] aliskiren hemifumarate at 3 mg.Kg-1 level in marmoset. In kind it is ADME, organism-based, Callithrix jacchus, Plasma. The note with it: in vivo.
Data set [15] is described as follows: Mean excretion of radioactivity (0-24h) in urine and faeces following single oral dose of 100 mg.Kg-1 [14C] aliskiren hemifumarate in rat. The data set is classed as ADME, organism-based, Albino HAN:WIST, Urine/Feces. The note with it: in vivo.
A short description of data set [16]: Excretion of radioactivity (24-48h) in urine following single oral dose of 500 mg.Kg-1 [14C] aliskiren hemifumarate in mouse. The data set is classed as ADME, organism-based, TgRasH2. The note with it: in vivo.
Data set [17] is described as follows: Concentration of radioactivity in the colon wall following repeated oral administration of [14C] aliskiren hemifumarate at 100 mg.Kg-1 level studied at 24h after 10th dose in rat. In kind it is ADME, organism-based, Albino HAN:WIST. Conditions: in vivo.
The nature of data set [18]: Biliary elimination of aliskiren following single oral dose of [14C] aliskiren hemifumarate at 500 mg.Kg-1 level in mouse. In kind it is ADME, organism-based, TgRasH2, Bile. The note with it: in vivo.
A short description of data set [19]: AUC (0-24h) of aliskiren hemifumarate following 4 week oral dietary dosing of aliskiren hemifumarate at 1500 mg.Kg-1 level in male mouse. The data set is classed as ADME, organism-based. The note with it: CB6F1-TGrasH2, mouse, plasma.
Data set [20] is described as follows: Cmax of aliskiren hemifumarate following 2 week oral dosing of aliskiren hemifumarate at 50 mg.Kg-1 level studied on day 14 in female Callithrix jacchus. In kind it is ADME, organism-based. The note with it: marmoset, plasma.
A short description of data set [21]: AUC/dose (0-168h) of unlabeled aliskiren hemifumarate following single oral administration of aliskiren hemifumarate at 3 mg.Kg-1 level in marmoset. In kind it is ADME, organism-based, Callithrix jacchus, Plasma. Conditions: in vivo.
Data set [22] can be described thus: Blood clearance (0-168h) of unlabeled aliskiren hemifumarate following single intravenous administration of aliskiren hemifumarate at 1 mg.Kg-1 level in marmoset. The data set is classed as ADME, organism-based, Callithrix jacchus. The note with it: in vivo.
Data set [23] is described as follows: Cmax of aliskiren hemifumarate following repeated oral administration of [14C] aliskiren hemifumarate at 100 mg.Kg-1 level studied after 2h of dosing on day 1 in rat. The data set is classed as ADME, organism-based, Albino HAN:WIST. Conditions: in vivo, read-out: Cmax(1).
Data set [24] in a line: Apparent terminal elimination half-life (0-96h) of unlabeled aliskiren hemifumarate following intravenous administration of aliskiren hemifumarate at 10 mg.Kg-1 level in rat. In kind it is ADME, organism-based. The note with it: Albino HAN:WIST, plasma.
Data set [25] can be described thus: Tmax (0-168h) of unlabeled aliskiren hemifumarate following single oral administration of aliskiren hemifumarate at 3 mg.Kg-1 level in marmoset. In kind it is ADME, organism-based, Callithrix jacchus. Conditions: plasma.
Data set [26] in a line: Tmax of aliskiren hemifumarate following repeated oral administration of [14C] aliskiren hemifumarate at 100 mg.Kg-1 level studied after 2h of dosing on day 1 in rat. Conditions: in vivo. In kind it is ADME, organism-based, Albino HAN:WIST.
Data set [27] can be described thus: Absolute oral bioavailability of aliskiren hemifumarate after single oral administration of [14C] aliskiren hemifumarate in mouse. Conditions: in vivo, 500 mg/kg. In kind it is ADME, organism-based, TgRasH2, Plasma.
A short description of data set [28]: Tmax (0-96h) of unlabeled aliskiren hemifumarate following oral administration of aliskiren hemifumarate at 100 mg.Kg-1 level in rat. The data set is classed as ADME, organism-based. Conditions: Albino HAN:WIST, plasma.
The nature of data set [29]: Cmax/dose of aliskiren hemifumarate following 4 week oral dietary dosing of aliskiren hemifumarate at 2000 mg.Kg-1 level in female mouse. The data set is classed as ADME, organism-based, CB6F1-TGrasH2. Conditions: in vivo, 672 h.
The nature of data set [30]: Cmax normalised (0-168h) of unlabeled aliskiren hemifumarate following single intravenous administration of aliskiren hemifumarate at 1 mg.Kg-1 level in marmoset. The note with it: in vivo. The data set is classed as ADME, organism-based, Callithrix jacchus, Plasma.
The nature of data set [31]: t1/2 of aliskiren hemifumarate following 2 week oral dosing of aliskiren hemifumarate at 100 mg.Kg-1 level studied on day 1 in male Callithrix jacchus. The data set is classed as ADME, organism-based. Conditions: marmoset, plasma.
A short description of data set [32]: Cmaxspec of aliskiren hemifumarate following 2 week oral dosing of aliskiren hemifumarate at 100 mg.Kg-1 level studied on day 14 in female Callithrix jacchus. In kind it is ADME, organism-based, Plasma. The note with it: marmoset, in vivo, 336 h.
Data set [33] is described as follows: AUCspec of aliskiren hemifumarate following 2 week oral dosing of aliskiren hemifumarate at 10 mg.Kg-1 level studied on […] in male Callithrix jacchus. Conditions: marmoset, in vivo, 336 h. In kind it is ADME, organism-based, Plasma.

Structures are written as SMILES.

As for `COCCCOc1cc(C[C@@H](C[C@H](N)[C@@H](O)C[C@H](C(=O)NCC(C)(C)C(N)=O)C(C)C)C(C)C)ccc1OC`, at 200 µM the inhibition against CYP2A6 was 2.6%.
In the case of `COCCCOc1cc(C[C@@H](C[C@H](N)[C@@H](O)C[C@H](C(=O)NCC([14CH3])([14CH3])C(N)=O)C(C)C)C(C)C)ccc1OC.O=C(O)/C=C/C(=O)O`, the Radiolabel recovery in data set [1] was 5.05%; in [2], 40.2%; in data set [3] it was “OUTCOME = Detected”; in [4], 40%; in [5] it was “OUTCOME = Detected”; in data set [6], “OUTCOME = Detected”. The Radiolabel recovery result in data set [8] was “OUTCOME = Observed, VALUE = Highest radioactivity concentration was observed”; in data set [9], “OUTCOME = Observed, VALUE = Highest radioactivity concentration was observed”; in [10], 4.5%; in [11], 84%; in [12], 95.25%; in [15], 36.1%. Moreover, the Radiolabel recovery was 1.02% in [16]; “OUTCOME = Observed, VALUE = Highest radioactivity concentration was observed” in data set [17]; “OUTCOME = Observed, VALUE = Elimination of aliskiren occurred mainly via the biliary or faecal route” in [18]. In addition, the Km (usually the concentration of substrate that gives half-maximal velocity) in data set [7] turned out to be 43.8 µM. In addition, the Tmax (usually the time from dosing to the highest level) in [13] is 4.98 min. The Absorption in [14] stood at 25%.
On to `COCCCOc1cc(C[C@@H](C[C@H](N)[C@@H](O)C[C@H](C(=O)NCC(C)(C)C(N)=O)C(C)C)C(C)C)ccc1OC.COCCCOc1cc(C[C@@H](C[C@H](N)[C@@H](O)C[C@H](C(=O)NCC(C)(C)C(N)=O)C(C)C)C(C)C)ccc1OC.O=C(O)/C=C/C(=O)O` [ALISKIREN FUMARATE], for which the AUC(0-t) (usually exposure summed from dosing to a finite time, without extrapolation to infinity) at 24 h in data set [19] came to 4140 ng·h/mL. The Cmax – broadly, the peak of the concentration-time curve – amounted to 10100 ng/mL in data set [20] and 639 nM in [23]. Besides, the values for the AUC normalised in data set [21] and in data set [33] were 1.52 (umol.h/L)/(mg/kg) and 3.39 ((ug.h.ml-1)/(mg/kg), respectively. Further, the Blood clearance in data set [22] is 0.055 L·h/kg. The half-life (usually how long it takes for the measured level to halve) in data set [24] was 23.1 h; in data set [31], 12.8 h. In addition, the figures for the Tmax in data set [25] and in data set [28] were 2 h and 0.25 h, respectively. The “Tmax(1)” value in data set [26] is given as 2 h. The F in data set [27] was 1.5%. The results for the Cmax normalised in data set [29], in data set [30] and in data set [32] were 0.615 (ng/mL)/(mg/kg/day), 14.24 (umol/L)/(mg/kg) and 0.106 (ug/ml)/(mg/kg), respectively.
